Source: US9347934B2, “Assays for identifying compounds that modulate bitter taste” (CHROMOCELL CORPORATION, priority 2011, dated 2016)

How the values were obtained:
Type in all cases: cell-based
[1] = target: T1, TAS2R3 (Homo sapiens, UniProt Q9NYW6); test: Calcium fluorescence functional assay, TAS2R3 cell line; conditions: 20 mM tastant; cell line expressing human TAS2R3 and mouse Gα15
T1 construct: expressed in transfected cells
T1 sequence (Q9NYW6 1-316): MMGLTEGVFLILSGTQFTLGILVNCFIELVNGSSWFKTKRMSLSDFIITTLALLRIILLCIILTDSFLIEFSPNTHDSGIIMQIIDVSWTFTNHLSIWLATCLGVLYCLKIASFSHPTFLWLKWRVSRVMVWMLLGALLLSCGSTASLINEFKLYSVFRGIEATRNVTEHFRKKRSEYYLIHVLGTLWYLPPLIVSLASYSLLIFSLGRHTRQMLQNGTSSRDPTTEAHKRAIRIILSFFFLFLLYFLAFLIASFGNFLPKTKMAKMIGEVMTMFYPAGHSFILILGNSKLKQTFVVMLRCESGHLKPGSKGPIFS
Description: (§1) Accordingly, each cell line of the panel expressed a human bitter taste receptor and mouse Gα15 signaling protein.
(§2) Probenecid was not included in the load solution.
(§3) After dye loading, cell plates were placed in a fluorescent plate reader (e.g., FDSS6000 (Hamamatsu, Japan)) and receptor stimulation was measured by adding 50 ul of 3× concentrated ligand/agonist stock. Fluorescence was monitored continuously for 10 s before agonist addition and for 100-250 s after stimulation with agonist.
(§4) Receptor Activation is defined as follows: % Activation=[((Maximum signal fluorescence−Minimum signal fluorescence)−(Maximum control fluorescence−Minimum control fluorescence))/(Maximum buffer fluorescence−Minimum buffer fluorescence)]*100 Functional Response=[(Maximum signal fluorescence−Minimum signal fluorescence)−(Maximum control fluorescence−Minimum control fluorescence)] • Signal Fluorescence: refers to the change in fluorescence seen with addition of ligand • Control fluorescence: refers to the change in fluorescence seen with addition of buffer (negative control) • Calcium signals from ligand and control were normalized to the basal fluorescence of the cells prior to the stimulation.
(§5) A concentration analysis was performed and EC50 values were calculated by nonlinear regression using the formula: Y=Bottom+(Top-Bottom)/(1+10^((Log EC50-X)*Hill Slope)), X=log of dose or concentration, Y=Response (increasing as X increases), Top=maximum signal, Bottom=minimum signal.

[2] = target: T2, TAS2R48 (Homo sapiens, UniProt P59542); test: Calcium fluorescence functional assay, TAS2R48 cell line; conditions: 20 mM tastant; cell line expressing human TAS2R48 and mouse Gα15
T2 construct: expressed in transfected cells
T2 sequence (P59542 1-299): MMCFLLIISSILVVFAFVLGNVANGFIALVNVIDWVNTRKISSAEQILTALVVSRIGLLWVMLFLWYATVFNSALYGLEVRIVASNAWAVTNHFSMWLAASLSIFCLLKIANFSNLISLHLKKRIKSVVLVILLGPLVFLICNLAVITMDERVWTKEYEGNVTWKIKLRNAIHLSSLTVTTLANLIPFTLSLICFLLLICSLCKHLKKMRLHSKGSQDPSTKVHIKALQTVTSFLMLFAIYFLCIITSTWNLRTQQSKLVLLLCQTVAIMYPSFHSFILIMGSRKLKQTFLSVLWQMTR
Description: as §1, §2, §3, §4, §5

[3] = target: T3, TAS2R41 (Homo sapiens, UniProt P59536); test: Calcium fluorescence functional assay, TAS2R41 cell line; conditions: 20 mM tastant; cell line expressing human TAS2R41 and mouse Gα15
T3 construct: expressed in transfected cells
T3 sequence (P59536 1-307): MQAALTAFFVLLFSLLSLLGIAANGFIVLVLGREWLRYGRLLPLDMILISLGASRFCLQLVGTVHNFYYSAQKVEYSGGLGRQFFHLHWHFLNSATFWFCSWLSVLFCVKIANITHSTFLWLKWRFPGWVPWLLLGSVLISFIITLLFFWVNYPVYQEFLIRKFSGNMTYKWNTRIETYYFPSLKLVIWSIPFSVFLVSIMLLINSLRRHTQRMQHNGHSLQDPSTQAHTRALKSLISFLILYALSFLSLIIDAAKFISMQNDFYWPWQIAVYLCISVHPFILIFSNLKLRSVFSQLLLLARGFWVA
Description: as §1, §2, §3, §4, §5

[4] = target: T4, TAS2R8 (Homo sapiens, UniProt Q9NYW2); test: Calcium fluorescence functional assay, TAS2R8 cell line; conditions: 20 mM tastant; cell line expressing human TAS2R8 and mouse Gα15
T4 construct: expressed in transfected cells
T4 sequence (Q9NYW2 1-309): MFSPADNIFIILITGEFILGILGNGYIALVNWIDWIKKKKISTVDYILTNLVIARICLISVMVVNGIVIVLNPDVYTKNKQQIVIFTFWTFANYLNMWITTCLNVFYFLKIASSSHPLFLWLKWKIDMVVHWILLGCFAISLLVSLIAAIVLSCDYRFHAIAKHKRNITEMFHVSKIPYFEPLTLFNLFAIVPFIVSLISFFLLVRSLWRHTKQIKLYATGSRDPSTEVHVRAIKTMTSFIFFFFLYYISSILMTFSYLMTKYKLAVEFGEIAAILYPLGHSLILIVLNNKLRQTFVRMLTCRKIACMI
Description: as §1, §2, §3, §4, §5

[5] = target: T5, TAS2R7 (Homo sapiens, UniProt Q9NYW3); test: Calcium fluorescence functional assay, TAS2R7 cell line; conditions: 20 mM tastant; cell line expressing human TAS2R7 and mouse Gα15
T5 construct: expressed in transfected cells
T5 sequence (Q9NYW3 1-318): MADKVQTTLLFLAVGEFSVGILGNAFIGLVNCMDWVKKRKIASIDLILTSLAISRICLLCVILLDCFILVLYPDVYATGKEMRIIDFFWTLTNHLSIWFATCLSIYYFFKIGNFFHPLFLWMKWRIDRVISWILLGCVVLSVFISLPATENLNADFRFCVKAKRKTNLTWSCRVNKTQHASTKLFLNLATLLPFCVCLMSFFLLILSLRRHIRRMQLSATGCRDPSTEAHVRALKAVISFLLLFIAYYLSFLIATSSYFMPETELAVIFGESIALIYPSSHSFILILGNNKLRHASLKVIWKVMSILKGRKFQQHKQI
Description: as §1, §2, §3, §4, §5

[6] = target: T6, TAS2R49 (Homo sapiens, UniProt P59543); test: Calcium fluorescence functional assay, TAS2R49 cell line; conditions: 20 mM tastant; cell line expressing human TAS2R49 and mouse Gα15
T6 construct: expressed in transfected cells
T6 sequence (P59543 1-309): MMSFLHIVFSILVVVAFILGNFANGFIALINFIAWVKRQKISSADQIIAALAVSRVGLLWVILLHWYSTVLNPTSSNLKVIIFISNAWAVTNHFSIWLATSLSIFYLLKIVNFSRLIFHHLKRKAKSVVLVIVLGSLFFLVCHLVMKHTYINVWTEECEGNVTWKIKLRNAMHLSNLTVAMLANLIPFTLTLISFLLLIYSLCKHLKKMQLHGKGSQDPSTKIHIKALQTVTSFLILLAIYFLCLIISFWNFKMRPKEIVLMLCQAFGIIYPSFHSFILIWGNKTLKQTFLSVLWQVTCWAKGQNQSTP
Description: as §1, §2, §3, §4, §5

CC1=CC(=O)NS(=O)(=O)O1 [Acesulfame K]
did not induce: TAS2R3 bitter taste receptor activity (changes in intracellular calcium) [1] | TAS2R48 bitter taste receptor activity (changes in intracellular calcium) [2] | TAS2R41 bitter taste receptor activity (changes in intracellular calcium) [3] | TAS2R8 bitter taste receptor activity (changes in intracellular calcium) [4] | TAS2R7 bitter taste receptor activity (changes in intracellular calcium) [5] | TAS2R49 bitter taste receptor activity (changes in intracellular calcium) [6]

[Cl-].[K+] [KCl, potassium chloride]
did not induce: TAS2R3 bitter taste receptor activity (changes in intracellular calcium) [1] | TAS2R48 bitter taste receptor activity (changes in intracellular calcium) [2] | TAS2R41 bitter taste receptor activity (changes in intracellular calcium) [3] | TAS2R8 bitter taste receptor activity (changes in intracellular calcium) [4] | TAS2R7 bitter taste receptor activity (changes in intracellular calcium) [5] | TAS2R49 bitter taste receptor activity (changes in intracellular calcium) [6]

CC(O)C(=O)[O-].[K+] (stereo not drawn) [Potassium lactate, potassium lactate]
did not induce: TAS2R3 bitter taste receptor activity (changes in intracellular calcium) [1] | TAS2R48 bitter taste receptor activity (changes in intracellular calcium) [2] | TAS2R41 bitter taste receptor activity (changes in intracellular calcium) [3] | TAS2R8 bitter taste receptor activity (changes in intracellular calcium) [4] | TAS2R7 bitter taste receptor activity (changes in intracellular calcium) [5] | TAS2R49 bitter taste receptor activity (changes in intracellular calcium) [6]
